In PubChem BioAssay AID248 (DTP/NCI, 2004):
Several values for one entry are separate records, joined by “and”; a condition that tells them apart may be missing. Equal entries are not always repeated. Inconclusive results and toxic doses are left out.

Test system: L1210 leukemia ip in BDF1 mice, survival T/C
Test: NCI In Vivo Anticancer Drug Screen. Data for tumor model L1210 Leukemia (intraperitoneal) in B6D2F1 (BDF1) mice
Conditions: endpoint: mean survival time, higher = longer survival
Procedure, shortened: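 Each compound was tested against a transplantable tumor grown in mice. The endpoint was survival, with treated animals benchmarked against vehicle controls as a simple ratio.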

[1] = dose: 25.0 mg/kg/injection, schedule: Q01DX009 (ip), vehicle: saline
[2] = dose: 50.0 mg/kg/injection, schedule: Q01DX001 (ip), vehicle: saline
[3] = dose: 50.0 mg/kg/injection, schedule: Q01DX009 (ip), vehicle: saline
[4] = dose: 100.0 mg/kg/injection, schedule: Q01DX001 (ip), vehicle: saline
[5] = dose: 100.0 mg/kg/injection, schedule: Q01DX001 (ip), vehicle: steriod suspending solution
[6] = dose: 200.0 mg/kg/injection, schedule: Q01DX001 (ip), vehicle: steriod suspending solution
[7] = dose: 400.0 mg/kg/injection, schedule: Q01DX001 (ip), vehicle: steriod suspending solution
[8] = dose: 100.0 mg/kg/injection, schedule: Q01DX009 (ip), vehicle: saline
[9] = dose: 100.0 mg/kg/injection, schedule: Q04DX003 (ip), vehicle: saline
[10] = dose: 200.0 mg/kg/injection, schedule: Q04DX003 (ip), vehicle: saline
[11] = dose: 100.0 mg/kg/injection, schedule: Q04DX003 (ip), vehicle: saline with Tween-80
[12] = dose: 200.0 mg/kg/injection, schedule: Q04DX003 (ip), vehicle: saline with Tween-80
[13] = dose: 400.0 mg/kg/injection, schedule: Q04DX003 (ip), vehicle: saline with Tween-80
[14] = dose: 100.0 mg/kg/injection, schedule: Q01DX009 (ip), vehicle: Klucel (hydroxypropylcellulose) (HPC)
[15] = dose: 100.0 mg/kg/injection, schedule: Q04DX003 (ip), vehicle: Klucel (hydroxypropylcellulose) (HPC)
[16] = dose: 200.0 mg/kg/injection, schedule: Q04DX003 (ip), vehicle: Klucel (hydroxypropylcellulose) (HPC)
[17] = dose: 400.0 mg/kg/injection, schedule: Q04DX003 (ip), vehicle: Klucel (hydroxypropylcellulose) (HPC)
[18] = dose: 200.0 mg/kg/injection, schedule: Q01DX001 (ip), vehicle: saline
[19] = dose: 400.0 mg/kg/injection, schedule: Q01DX001 (ip), vehicle: saline
[20] = dose: 100.0 mg/kg/injection, schedule: Q01DX009 (ip), vehicle: saline with Tween-80
[21] = dose: 200.0 mg/kg/injection, schedule: Q01DX009 (ip), vehicle: saline with Tween-80
[22] = dose: 200.0 mg/kg/injection, schedule: Q01DX009 (ip), vehicle: Klucel (hydroxypropylcellulose) (HPC)
[23] = dose: 400.0 mg/kg/injection, schedule: Q01DX009 (ip), vehicle: Klucel (hydroxypropylcellulose) (HPC)

CN(C)c1ccc2nc3ccc(=[N+](C)C)cc-3sc2c1 was tested, and the T/C (dose: 5.0 mg/kg/injection, schedule: Q01DX Z (ip), vehicle: carboxymethylcellulose (CMC)) was 93 % of control and 90 % of control, the T/C (dose: 10.0 mg/kg/injection, schedule: Q01DX Z (ip), vehicle: carboxymethylcellulose (CMC)) was 100 % of control and 92 % of control and the T/C (dose: 12.5 mg/kg/injection, schedule: Q01DX009 (ip), vehicle: saline) was 107 % of control. For the same molecule, the T/C (dose: 20.0 mg/kg/injection, schedule: Q01DX Z (ip), vehicle: carboxymethylcellulose (CMC)) was 98 % of control and 92 % of control, the T/C (dose: 25.0 mg/kg/injection, schedule: Q01DX001 (ip), vehicle: saline) was 102 % of control and the T/C [1] was 94 % of control. For the same molecule, the T/C (dose: 40.0 mg/kg/injection, schedule: Q01DX Z (ip), vehicle: carboxymethylcellulose (CMC)) was 105 % of control, the T/C [2] was 97 % of control and the T/C [3] was 103 % of control. For the same molecule, the T/C [4] was 108 % of control.
C[C@]12CCC(=O)C=C1CC[C@H]1[C@@H]3CC[C@](O)(C(=O)CO)[C@@]3(C)CC(=O)[C@@]12SC(N)=O was tested, and the T/C [5] was 92 % of control, the T/C [6] was 92 % of control and the T/C [7] was 104 % of control.
For S=C(S)N1CCN(C(=S)S)CC1, the T/C [1] was 108 % of control, the T/C [3] was 103 % of control and the T/C [8] was 92 % of control and 102 % of control. For the same molecule, the T/C [9] was 99 % of control and the T/C [10] was 97 % of control.
In the case of CC1=C2C(=CO[C@H](C)[C@H]2C)C(=O)C(C(=O)O)=C1O, the T/C (dose: 12.5 mg/kg/injection, schedule: Q04DX002 (ip), vehicle: saline with Tween-80) was 88 % of control, the T/C (dose: 25.0 mg/kg/injection, schedule: Q04DX002 (ip), vehicle: saline with Tween-80) was 103 % of control and the T/C (dose: 50.0 mg/kg/injection, schedule: Q04DX002 (ip), vehicle: saline with Tween-80) was 102 % of control and 88 % of control.
CCC[CH2][Sn]1([CH2]CCC)[O]CC2(CCCCC2)C[O]1 was tested, and the T/C (dose: 2.5 mg/kg/injection, schedule: Q04DX002 (ip), vehicle: saline + alcohol) was 94 % of control and 102 % of control, the T/C (dose: 5.0 mg/kg/injection, schedule: Q04DX002 (ip), vehicle: saline + alcohol) was 105 % of control and 118 % of control and the T/C (dose: 10.0 mg/kg/injection, schedule: Q04DX002 (ip), vehicle: saline + alcohol) was 105 % of control. The T/C (dose: 20.0 mg/kg/injection, schedule: Q04DX002 (ip), vehicle: saline + alcohol) was 93 % of control and 105 % of control.
In the case of CC(C(CC(=O)c1ccccc1)c1ccccc1)[N+](=O)[O-] (configuration not stated), the T/C (dose: 100.0 mg/kg/injection, schedule: Q01DX001 (ip), vehicle: Klucel (hydroxypropylcellulose) (HPC)) was 124 % of control, the T/C [11] was 98 % of control and the T/C (dose: 200.0 mg/kg/injection, schedule: Q01DX001 (ip), vehicle: Klucel (hydroxypropylcellulose) (HPC)) was 97 % of control. For the same molecule, the T/C [12] was 97 % of control, the T/C (dose: 400.0 mg/kg/injection, schedule: Q01DX001 (ip), vehicle: Klucel (hydroxypropylcellulose) (HPC)) was 96 % of control and the T/C [13] was 92 % of control.
N#CCCCCCl was tested, and the T/C (dose: 6.0 mg/kg/injection, schedule: Q01DX009 (ip), vehicle: saline) was 103 % of control, the T/C (dose: 12.0 mg/kg/injection, schedule: Q01DX009 (ip), vehicle: saline) was 105 % of control and the T/C (dose: 12.0 mg/kg/injection, schedule: Q04DX003 (ip), vehicle: saline) was 97 % of control. For the same molecule, the T/C [1] was 103 % of control and the T/C (dose: 25.0 mg/kg/injection, schedule: Q04DX003 (ip), vehicle: saline) was 96 % of control.
For CCN=C(c1ccc(NC(=O)c2ccc(C(=O)Nc3ccc(C(=NCC)N(CC)C(C)=O)cc3)cc2)cc1)N(CC)C(C)=O, the T/C (dose: 125.0 mg/kg/injection, schedule: Q01DX015 (ip), vehicle: methylcellulose (MC)) was 95 % of control, the T/C (dose: 375.0 mg/kg/injection, schedule: Q01DX015 (ip), vehicle: methylcellulose (MC)) was 104 % of control and the T/C (dose: 500.0 mg/kg/injection, schedule: Q01DX015 (ip), vehicle: methylcellulose (MC)) was 103 % of control.
With CC(=O)Nc1cc(Cl)cc2c1-c1c(Cl)cc(Cl)cc1C2 the T/C [14] was 92 % of control, the T/C [15] was 92 % of control and the T/C [16] was 105 % of control. The T/C [17] was 105 % of control.
With CCSC(=O)N=Nc1ccc(O)cc1 the T/C [2] was 103 % of control, the T/C [4] was 100 % of control and the T/C [18] was 94 % of control. The T/C [19] was 111 % of control.
c1ccc([Si](OO[Si](c2ccccc2)(c2ccccc2)c2ccccc2)(c2ccccc2)c2ccccc2)cc1 was tested, and the T/C [20] was 86 % of control and the T/C [21] was 87 % of control.
O=c1[nH]c(=O)c2nc3ccccc3nc2[nH]1 was tested, and the T/C [14] was 100 % of control, the T/C [22] was 94 % of control and the T/C [23] was 93 % of control.
For N#CC(C#N)=Cc1ccccc1[N+](=O)[O-], the T/C (dose: 25.0 mg/kg/injection, schedule: Q01DX Z (ip), vehicle: methylcellulose (MC)) was 98 % of control and the T/C (dose: 50.0 mg/kg/injection, schedule: Q01DX Z (ip), vehicle: methylcellulose (MC)) was 88 % of control.
For COC(=O)C(Cc1ccc(N(CCCl)CCCl)cc1)N=NNc1[nH]ncc1C(N)=O (configuration not stated), the T/C (dose: 19.0 mg/kg/injection, schedule: Q01DX001 (ip), vehicle: other) was 106 % of control, the T/C (dose: 38.0 mg/kg/injection, schedule: Q01DX001 (ip), vehicle: other) was 124 % of control and the T/C (dose: 75.0 mg/kg/injection, schedule: Q01DX001 (ip), vehicle: other) was 100 % of control. The T/C (dose: 150.0 mg/kg/injection, schedule: Q01DX001 (ip), vehicle: other) was 155 % of control and the T/C (dose: 300.0 mg/kg/injection, schedule: Q01DX001 (ip), vehicle: other) was 117 % of control.
For Cc1ccc(CNc2cccc([N+](=O)[O-])c2)cc1, the T/C [14] was 98 % of control, the T/C [15] was 98 % of control and the T/C [22] was 93 % of control. For the same molecule, the T/C [16] was 96 % of control, the T/C [23] was 102 % of control and the T/C [17] was 101 % of control.
With Cc1ccc(CNC(=O)Nc2ccccc2)c(C)c1 the T/C (dose: 100.0 mg/kg/injection, schedule: Q01DX009 (ip), vehicle: other) was 103 % of control, the T/C (dose: 200.0 mg/kg/injection, schedule: Q01DX009 (ip), vehicle: other) was 91 % of control and the T/C (dose: 400.0 mg/kg/injection, schedule: Q01DX009 (ip), vehicle: other) was 101 % of control.
In the case of CN(C)C1CCN(Cc2ccccc2)CC1, the T/C [3] was 94 % of control, the T/C (dose: 50.0 mg/kg/injection, schedule: Q04DX003 (ip), vehicle: saline) was 100 % of control and the T/C [8] was 96 % of control. The T/C [9] was 97 % of control, the T/C (dose: 200.0 mg/kg/injection, schedule: Q01DX009 (ip), vehicle: saline) was 93 % of control and the T/C [10] was 92 % of control.
With O=C1NC(=O)C2(CCCC2)N1 the T/C [4] was 102 % of control, the T/C [18] was 108 % of control and the T/C [19] was 102 % of control.
In the case of CCCCCCOc1ccc(/C=N\N=C\c2ccc(OCCCCCC)cc2)cc1, the T/C [20] was 92 % of control, the T/C [21] was 89 % of control and the T/C (dose: 400.0 mg/kg/injection, schedule: Q01DX009 (ip), vehicle: saline with Tween-80) was 91 % of control.
O=C(OCCBr)Oc1cccc2ccccc12 was tested, and the T/C (dose: 100.0 mg/kg/injection, schedule: Q01DX001 (ip), vehicle: carboxymethylcellulose (CMC)) was 98 % of control, the T/C (dose: 200.0 mg/kg/injection, schedule: Q01DX001 (ip), vehicle: carboxymethylcellulose (CMC)) was 93 % of control and the T/C (dose: 400.0 mg/kg/injection, schedule: Q01DX001 (ip), vehicle: carboxymethylcellulose (CMC)) was 95 % of control.
COC(=O)C(N)=O was tested, and the T/C [5] was 115 % of control, the T/C (dose: 100.0 mg/kg/injection, schedule: Q04DX002 (ip), vehicle: Klucel (hydroxypropylcellulose) (HPC)) was 100 % of control and the T/C [6] was 121 % of control. For the same molecule, the T/C (dose: 200.0 mg/kg/injection, schedule: Q04DX002 (ip), vehicle: Klucel (hydroxypropylcellulose) (HPC)) was 106 % of control, the T/C [7] was 106 % of control and the T/C (dose: 400.0 mg/kg/injection, schedule: Q04DX002 (ip), vehicle: Klucel (hydroxypropylcellulose) (HPC)) was 106 % of control.
With O=C1OC(=O)C2C3C=CC(C12)C1C2C(=O)OC(=O)C2C31 (configuration not stated) the T/C [11] was 94 % of control, the T/C [12] was 94 % of control and the T/C [13] was 91 % of control.
